# Measured values published in paper PMC4099174 (Journal of Medicinal Chemistry, 2014).
# Read-outs that look alike come from different tables or passages of the source. Marks after values point to notes of the source that are not given here.
# Tests used:
# [1] = tested on: bloodstream form of T. brucei; assay: Transferrin uptake (receptor-mediated endocytosis); format: cell-based, Trypanosoma brucei; details: concentration twice the EC50, 18 h
# From the text: Highly efficient and rapid endocytosis is one of the most important cellular processes for this infective parasite to survive and multiply within the bloodstream of the host, and the activity of TbPI3KIII is essential for this process.[25] To gain insight on the possible target(s) of our compounds, we carried out transferrin uptake experiments to measure receptor-mediated endocytosis after drug treatment. […] Compound 16e induced a phenotype defective in endocytosis (Figure 3); however, the PIP3 molecular species identified (42:7-9) was not the same PIP3 molecular species identified in WT cells (44:9-12).
# Two million trypanosomes were harvested and washed with TDB-glucose plus 1% BSA, resuspended in 250 μL in the same buffer, and incubated for 10 min at 37 °C prior to the addition of 5 μg of AlexaFluor 488-conjugated human holo-Tf (Invitrogen). Incubations were carried out for 0 (no Tf) or 3 min at 37 °C, after which cells were immediately fixed in 4 °C in 1% PFA diluted in cold PBS for at least 1 h. Parasites were finally washed twice with PBS and analyzed with a Becton Dickinson FACSCalibur flow cytometer (BD Biosciences) using BD CellQuest Pro version 4.0.2 software.
# [2] = tested on: Bloodstream form culture of T. b. brucei; assay: Cell cycle analysis by FACS (propidium iodide); format: cell-based, Trypanosoma brucei brucei; details: concentration twice the EC50, 18 h
# Protocol: For cell cycle analysis, samples (1.5 × 10^6 cells) were collected, centrifuged (1400g at 4 °C for 5 min), and washed in trypanosome dilution buffer (TDB). The cell pellets were gently suspended in 50 μL of TDB and permeabilized by adding 1 μL of saponin (25 mg/mL) for 3 min. It was then mixed with another 450 μL of TDB. RNase and propidium iodide (PI) were added to the suspension at final concentrations of 10 and 20 μg/mL, respectively, and the samples were incubated at room temperature for 30 min and then stored at 4 °C. The DNA content of PI-stained cells and the percentage of cells in each phase of the cell cycle (10 000 cells per sample) were analyzed with a Becton Dickinson FACSCalibur flow cytometer (BD Biosciences) using BD CellQuest Pro version 4.0.2 software.
# Figure S3. Cell Cycle analysis of parasites upon dosage with NVP-BEZ235 derivative.
# Bloodstream form culture of T. b. brucei was subjected to different drugs and analyzed by
# Fluorescencecactivated cell sorter (FACS) for DNA content stained by propidium iodide (PI).
# Cell cultures were incubated during 18 h with various NVPcBEZ235 derivatives using DMSO as
# a control treatment. Mean ± SD of three independent experiments are shown.
# [3] = tested on: phosphorylated PIs (PIP, PIP3) in T. brucei cells; assay: Phospholipidomics analysis (ES-MS of lipid extracts); format: cell-based, Trypanosoma brucei; details: 200 nM, 12 h; negative ion mode scans 950–1300 m/z
# From the text: We originally selected 1 to investigate its potential as an trypanocidal agent on the basis of its activity as a PI3K/mTOR inhibitor in mammalian cells and the fact that PI3K activity is essential for the bloodstream form of the T. brucei parasite.[25] In the interest of elucidating the potential mechanism of action against T. brucei cells, we performed a lipidomic analysis to discern if PI kinases are likely targets of these analogues. Lipid extracts of cells grown in the presence of the best compounds at sublethal doses (200 nM) for 12 h were analyzed by ES-MS. […] There were no significant differences in the phosphatidylcholine (PC) and sphingomylein (SM) species between the control and cells grown in the presence of the other compounds (Figure S1). […] Alternatively, as is often the case, changes in the lipid profile could be a reflection in the cells succumbing to (or adapting to) a defect in a major cellular process, such as endo- or exocytosis or cell cycle arrest.
# Because these compounds are thought to target PI3K, negative ion mode scans between 950 and 1300 m/z were conducted to focus upon singly and multiply phosphorylated PIs.
# Total lipids from mid log phase cells were extracted by the method of Bligh and Dyer.[30] Briefly, mid log phase cells were collected by centrifugation (800g, 10 min), washed with PBS, resuspended in 100 μL of TDB-glucose, transferred to a glass tube containing 375 μL of 1:2 (v/v) CHCl3/MeOH, and vortexed. The sample was agitated vigorously for a further 10–15 min. The sample was made biphasic by the addition of 125 μL of CHCl3 and vortexed, and then 125 μL of H2O was added. The sample was vortexed again and centrifuged at 3000g at rt for 10 min. The lower (organic) phase was transferred into a new glass vial, and the aqueous phase was re-extracted with the fresh lower phase. The resultant lower phase lipid extract was dried under a stream of nitrogen and stored at 4 °C.
# Lipid extracts were dissolved in 15 μL of CHCl3/MeOH (1:2) and 15 μL of acetonitrile/isopropanol/water (6:7:2) and analyzed with a triple quadrupole mass spectrometer (Absceix 4000 QTrap) equipped with a nanoelectrospray source. […] The lipid extracts were analyzed in both positive and negative ion modes using a capillary voltage of 1.25 kV. […] Tandem mass spectra (MS/MS) were obtained with collision energies as follows: 35–45 V, PC/SM in positive ion mode, parent-ion scanning of m/z 184; 35–55 V, PI in negative ion mode, parent-ion scanning of m/z 241; 35–65 V, PE in negative ion mode, parent-ion scanning of m/z 196; 20–35 V, PS in negative ion mode, neutral loss scanning of m/z 87; and 40–90 V, for all glycerophospholipids (including PA, PG, and cardiolipin) detected by precursor scanning for m/z 153 in negative ion mode. […]
# [4] = Table 1, Selectivity = TC50/EC50 (HepG2 / T. brucei)
# [5] = Table 2, Selectivity = TC50/EC50
smiles,measurement,setting,value
Cn1c(=O)n(-c2ccc(C(C)(C)C#N)cc2)c2c3cc(-c4ccncc4)ccc3ncc21 [Compound 4a],HepG2 TC50,"HepG2 cell line; human, 48 h",3.43 µM
"Cn1c(=O)n(-c2ccc(C(C)(C)C#N)cc2)c2c3cc(-c4cccnc4)ccc3ncc21 [Compound 4b, 2-Methyl-2-(4-(3-methyl-2-oxo-8-(pyridin-3-yl)-2,3-dihydro-1H-imidazo[4,5-c]quinolin-1-yl)phenyl)propanenitrile]",HepG2 cytotoxicity TC50,"HepG2 cell line; human, 48 h",0.575 µM
"Cn1c(=O)n(-c2ccc(C(C)(C)C#N)cc2)c2c3cc(-c4ccccc4)ccc3ncc21 [Compound 4c, 2-Methyl-2-(4-(3-methyl-2-oxo-8-phenyl-2,3-dihydro-1H-imidazo[4,5-c]quinolin-1-yl)phenyl)propanenitrile]",HepG2 TC50,"HepG2 cell line; human, 48 h",1.82^d μM
"Cn1c(=O)n(-c2ccc(C(C)(C)C#N)cc2)c2c3cc(-c4ccc(C(F)(F)F)nc4)ccc3ncc21 [Compound 4d, 2-Methyl-2-(4-(3-methyl-2-oxo-8-(6-(trifluoromethyl)pyridin-3-yl)-2,3-dihydro-1H-imidazo[4,5-c]quinolin-1-yl)phenyl)propanenitrile]",Selectivity,HepG2 cell line; [4],>470
"Cn1cc(-c2ccc3ncc4c(c3c2)n(-c2ccc(C(C)(C)C#N)cc2)c(=O)n4C)cn1 [Compound 4e, 2-Methyl-2-(4-(3-methyl-8-(1-methyl-1H-pyrazol-4-yl)-2-oxo-2,3-dihydro-1H-imidazo[4,5-c]quinolin-1-yl)phenyl)propanenitrile]",transferrin uptake / endocytosis,[1],did not significantly reduce transferrin endocytosis
same,cell cycle progression,[2],reducing the proportion of cells in G1 and increasing multinucleated cells
same,phosphorylated PI (PIP) levels vs control cells,[3],significant (albeit incomplete) reduction in PIP levels
"Cn1c(=O)n(-c2ccc(C(C)(C)C#N)cc2)c2c3cc(-c4cc5ccccc5s4)ccc3ncc21 [Compound 4f, 2-(4-(8-(Benzo[b]thiophen-2-yl)-3-methyl-2-oxo-2,3-dihydro-1H-imidazo[4,5-c]quinolin-1-yl)phenyl)-2-methylpropanenitrile]",Selectivity,HepG2 cell line; [4],>460
same,HepG2 toxicity (in words),"HepG2 cell line; human, 48 h",no HepG2 toxicity observed
"CN1CCN(c2ccc3ncc4c(c3c2)n(-c2ccc(C(C)(C)C#N)cc2)c(=O)n4C)CC1 [Compound 5a, 2-Methyl-2-(4-(3-methyl-8-(4-methylpiperazin-1-yl)-2-oxo-2,3-dihydro-1H-imidazo[4,5-c]quinolin-1-yl)phenyl)propanenitrile]",Selectivity,HepG2 cell line; [4],>5
"Cn1c(=O)n(-c2ccc(C(C)(C)C#N)cc2)c2c3cc(N4CCOCC4)ccc3ncc21 [Compound 5b, 2-Methyl-2-(4-(3-methyl-8-morpholino-2-oxo-2,3-dihydro-1H-imidazo[4,5-c]quinolin-1-yl)phenyl)propanenitrile]",Selectivity,HepG2 cell line; [4],>24
"Cn1c(=O)n(-c2ccc(C(C)(C)C#N)cc2)c2c3cc(N)ccc3ncc21 [Compound 6, 2-(4-(8-Amino-3-methyl-2-oxo-2,3-dihydro-1H-imidazo[4,5-c]quinolin-1-yl)phenyl)-2-methylpropanenitrile]",Selectivity,HepG2 cell line; [4],>4
"CC(=O)Nc1ccc2ncc3c(c2c1)n(-c1ccc(C(C)(C)C#N)cc1)c(=O)n3C [Compound 7, N-(1-(4-(2-Cyanopropan-2-yl)phenyl)-3-methyl-2-oxo-2,3-dihydro-1H-imidazo[4,5-c]quinolin-8-yl)acetamide]",Selectivity,HepG2 cell line; [4],>5
"Cc1ccc2ncc3c(c2c1)n(-c1ccc(C(C)(C)C#N)cc1)c(=O)n3C [Compound 8, 2-(4-(3,8-Dimethyl-2-oxo-2,3-dihydro-1H-imidazo[4,5-c]quinolin-1-yl)phenyl)-2-methylpropanenitrile]",Selectivity,HepG2 cell line; [4],>10
"Cn1c(=O)n(-c2ccc(C(C)(C)C#N)cc2)c2c3ccccc3ncc21 [Compound 9, 2-Methyl-2-(4-(3-methyl-2-oxo-2,3-dihydro-1H-imidazo[4,5-c]quinolin-1-yl)phenyl)propanenitrile]",Selectivity,HepG2 cell line; [4],>80
same,HepG2 TC50,"HepG2 cell line; human, 48 h",>50 µM
"Cn1c(=O)n(-c2ccc(C(C)(C)C#N)cc2)c2c3cc(C#Cc4cccnc4)ccc3ncc21 [Compound 10, reference compound]",HepG2 TC50,"HepG2 cell line; human, 48 h",0.14^d μM
"Cn1c(=O)n(-c2ccc(C(F)(F)F)cc2)c2c3cc(-c4cnc5ccccc5c4)ccc3ncc21 [Compound 16a, 3-Methyl-8-(quinolin-3-yl)-1-(4-(trifluoromethyl)phenyl)-1H-imidazo[4,5-c]quinolin-2(3H)-one]",Selectivity,HepG2 cell line; [5],>240
"Cn1c(=O)n(-c2ccc(C#N)cc2)c2c3cc(-c4cnc5ccccc5c4)ccc3ncc21 [Compound 16b, 4-(3-Methyl-2-oxo-8-(quinolin-3-yl)-2,3-dihydro-1H-imidazo[4,5-c]quinolin-1-yl)benzonitrile]",Selectivity,HepG2 cell line; [5],>540
"Cn1c(=O)n(-c2ccccc2)c2c3cc(-c4cnc5ccccc5c4)ccc3ncc21 [Compound 16c, 3-Methyl-1-phenyl-8-(quinolin-3-yl)-1H-imidazo[4,5-c]quinolin-2(3H)-one]",Selectivity,HepG2 cell line; [5],>1000
"Cn1c(=O)n(-c2ccc(CC#N)cc2)c2c3cc(-c4ccncc4)ccc3ncc21 [Compound 16d, 2-(4-(3-Methyl-2-oxo-8-(pyridin-4-yl)-2,3-dihydro-1H-imidazo[4,5-c]quinolin-1-yl)phenyl)acetonitrile]",Selectivity,HepG2 cell line; [5],>560
"CN(C)c1ccc(-n2c(=O)n(C)c3cnc4ccc(-c5ccncc5)cc4c32)cc1 [Compound 16h, 1-(4-(Dimethylamino)phenyl)-3-methyl-8-(pyridin-4-yl)-1H-imidazo[4,5-c]quinolin-2(3H)-one]",HepG2 TC50,"HepG2 cell line; human, 48 h",2.34 µM
"Cn1c(=O)n(-c2ccc(N3CCOCC3)cc2)c2c3cc(-c4ccncc4)ccc3ncc21 [Compound 16i, 3-Methyl-1-(4-morpholinophenyl)-8-(pyridin-4-yl)-1H-imidazo[4,5-c]quinolin-2(3H)-one]",Selectivity,HepG2 cell line; [5],>24
